Assay results as given in patent US8536152B2, “Methods of using diacerein as an adjunctive therapy for diabetes” (TWi Biotechnology, Inc., priority 2010, dated 2013).

Columns and labels:
[1] = system: patients with type 2 diabetes inadequately controlled by current oral antidiabetic therapy; assay: Randomized, double-blind, placebo-controlled study of add-on diacerein: glycosylated hemoglobin (HbA1c); type: in vivo, human
From the text: Primary Endpoints: To compare the efficacy of add-on diacerein with no add-on treatment (placebo) on glycosylated hemoglobin (HbA1c) after 24-week double-blind treatment in type 2 DM patients inadequately controlled by previous antidiabetic therapy.
(§1) Subjects: Male or female type 2 DM patients (BMI≦35 kg/m^2) on a stable oral hypoglycemic […] for at least 3 months prior to screening visit. The hemoglobin A1c (HbA1c) measurements taken at a screening visit were between 7% and 12%. Patients enrolled in the study were receiving one or more oral antihyperglycemic agents including sulfonylurea, biguanides, alpha-glucosidase inhibitors, thiazolidinediones (TZDs) and nonsulfonylurea insulin secretagogues.
(§2) Procedure: This was a randomized, double-blind, parallel comparison study comparing 50 mg diacerein versus placebo in patients with type 2 DM inadequately controlled by previous antidiabetic therapy. The starting dose of diacerein was 50 mg once daily every morning for 4 weeks and could be adjusted up to 50 mg twice daily (morning and evening) if patients had become accustomed to the medication. Patients were screened for eligibility four weeks (week-4) prior to entry at baseline (week 0). During this 4-week screening period, the participants continued their previous antidiabetic therapy, dietary habits and other lifestyle habits. In order to be eligible for randomization following the 4-week screening period, patients must not have experienced hypoglycemia and must have had two fasting plasma glucose (FPG) measurements of between 135 to 250 mg/dL. At the end of the screening period, patients who met eligibility requirements were randomly assigned to receive diacerein 50 mg or placebo twice a day for 24 weeks observation. During treatment/observation period, the previous antidiabetic therapy including the class and/or dosage was not changed. Patients were asked to attend the center on eight occasions (screening, baseline, week 4, 8, 12, 16, 20 and 24) during the trial. The total study duration including the screening period for each patient was 28 weeks. There was a two weeks follow-up period after completion of the treatment/observation. […]
Statistical method(s) for efficacy/safety evaluations: The difference (diacerein minus placebo) of HbA1c reduction between the two treatment groups was analyzed by analysis of covariance (ANCOVA) with baseline value as covariate. The corresponding 95% confidence interval was calculated. Within-group changes were also analyzed, with paired t test used to evaluate differences from baseline in each treatment group.
For the efficacy parameters, descriptive statistics were presented by visit. […] The area under the concentration-time curve (AUC) was used for evaluating the parameters measured by oral glucose tolerance test. […]

[2] = system: patients with type 2 diabetes inadequately controlled by current oral antidiabetic therapy; assay: Same clinical study: fasting plasma glucose; type: in vivo, human; conditions: at 24 weeks
From the text: as §1
Procedure: This was a randomized, double-blind, parallel comparison study comparing 50 mg diacerein versus placebo in patients with type 2 DM inadequately controlled by previous antidiabetic therapy. The starting dose of diacerein was 50 mg once daily every morning for 4 weeks and could be adjusted up to 50 mg twice daily (morning and evening) if patients had become accustomed to the medication. Patients were screened for eligibility four weeks (week-4) prior to entry at baseline (week 0). During this 4-week screening period, the participants continued their previous antidiabetic therapy, dietary habits and other lifestyle habits. […]
(§3) For the efficacy parameters, descriptive statistics were presented by visit. […] The area under the concentration-time curve (AUC) was used for evaluating the parameters measured by oral glucose tolerance test.

[3] = system: patients with type 2 diabetes inadequately controlled by current oral antidiabetic therapy; assay: Same clinical study: homeostatic model assessment (HOMA) beta cell function; type: in vivo, human
From the text: as §1
as §2, with “weeks.” for “weeks. There was a two weeks follow-up period after completion of the treatment/observation.”
as §3

[4] = system: patients with type 2 diabetes inadequately controlled by current oral antidiabetic therapy; assay: Same clinical study: cardiovascular safety endpoints (body weight, blood pressure, pulse rate, lipid profiles); type: in vivo, human; set-up: Total Cholesterol, Change / Triglyceride, Change / HDL, Change / LDL, Change: unit not given here
From the text: as §1
(§4) Procedure: This was a randomized, double-blind, parallel comparison study comparing 50 mg diacerein versus placebo in patients with type 2 DM inadequately controlled by previous antidiabetic therapy. The starting dose of diacerein was 50 mg once daily every morning for 4 weeks and could be adjusted up to 50 mg twice daily (morning and evening) if patients had become accustomed to the medication. Patients were screened for eligibility four weeks (week-4) prior to entry at baseline (week 0). During this 4-week screening period, the participants continued their previous antidiabetic therapy, dietary habits and other lifestyle habits. In order to be eligible for randomization following the 4-week screening period, patients must not have experienced hypoglycemia and must have had two fasting plasma glucose (FPG) measurements of between 135 to 250 mg/dL. At the end of the screening period, patients who met eligibility requirements were randomly assigned to receive diacerein 50 mg or placebo twice a day for 24 weeks observation. During treatment/observation period, the previous antidiabetic therapy including the class and/or dosage was not changed. Patients were asked to attend the center on eight occasions (screening, baseline, week 4, 8, 12, 16, 20 and 24) during the trial. The total study duration including the screening period for each patient was 28 weeks. There was a two weeks follow-up period after completion of the treatment/observation. During this follow-up period, patients were followed for adverse events.
For the efficacy parameters, descriptive statistics were presented by visit. Statistical analysis was performed to assess the mean change from baseline. The area under the concentration-time curve (AUC) was used for evaluating the parameters measured by oral glucose tolerance test.

[5] = system: patients with type 2 diabetes inadequately controlled by current oral antidiabetic therapy; assay: Same clinical study: adverse events; type: in vivo, human
Protocol: as §4
Adverse events were summarized according to the Medical Dictionary for Regulatory Activities (MedDRA) adverse event dictionary. The tabulations counted the number of patients reporting individual preferred term adverse events and the total number of patients reporting at least one adverse event per system organ class. If appropriate, the incidence of adverse events was compared for each of the two treatment groups using Fisher's Exact test.

[6] = system: type 2 (or type II) diabetes rodent models; conditions: type 2 diabetes rodent models; cited from earlier work
[7] = Week 24, N 28, in mg/dL (unit assumed)
[8] = Week 24, N 28, in mmHg (unit assumed)

CC(=O)Oc1cccc2c1C(=O)c1c(OC(C)=O)cc(C(=O)O)cc1C2=O [diacerein, 4,5-bis(acetyloxy)-9,10-dioxo-2-anthracene carboxylic acid]
between-group difference in HbA1c change (diacerein vs placebo) ([1]; 24 weeks, P=0.0158): 0.63 percentage point
average absolute difference in HbA1c levels between baseline and 24 weeks (reduction) ([1]; add-on diacerein 50 mg twice a day, 24 weeks, within group): 0.63 percentage point
HbA1c absolute reduction versus the placebo group ([1]; after 20 weeks, P=0.0223): 0.60%
number of patients who had any reduction in HbA1c levels ([1]; at 24 weeks): 20 of 26
fasting plasma glucose levels versus placebo group [2]: consistently lower
within-group change from baseline in HOMA-BETA ([3]; over 24 weeks): significant
HOMA beta cell function (HOMA-BETA) course over treatment ([3]; over the course of treatment): continual improvement
HOMA-BETA ([3]; week 24): 56.26
pulse rate, Mean ± SD ([4]; Week 24, N 28): 77.18 ± 10.22
HDL, Mean ± SD [4, 7]: 42.25 ± 10.40
LDL, Mean ± SD [4, 7]: 91.64 ± 27.28
Total Cholesterol, Mean ± SD [4, 7]: 164.61 ± 30.09
Triglyceride, Mean ± SD [4, 7]: 159.18 ± 97.07
Systolic blood pressure, Mean ± SD [4, 8]: 130.32 ± 16.85
diastolic blood pressure, Mean ± SD [4, 8]: 78.86 ± 8.20
HDL, Change ([4]; Week 24 vs baseline): −0.96 ± 10.27
LDL, Change ([4]; Week 24 vs baseline): −6.09 ± 19.75
Systolic blood pressure, Change ([4]; Week 24 vs baseline): −0.25 ± 14.38
Total Cholesterol, Change ([4]; Week 24 vs baseline): −8.46 ± 32.20
Triglyceride, Change ([4]; Week 24 vs baseline): −7.57 ± 98.79
diastolic blood pressure, Change ([4]; Week 24 vs baseline): −1.14 ± 8.78
pulse rate, Change ([4]; Week 24 vs baseline): 1.46 ± 9.00
risks of heart attack and cardiovascular disorders ([4]; adding diacerein to current anti-diabetic treatment): did not increase
differences between treatment groups in body weight, blood pressure, pulse rate and lipid profiles ([4]; between baseline levels and levels at week 24, diacerein vs placebo): no statistically significant differences
difference between the two groups in the incidence of patients complaining of adverse events ([5]; diacerein vs placebo): No statistically significant difference
patients reporting at least one adverse effect (AE), number ([5]; during the study period): 20 patients
patients reporting at least one adverse effect (AE), percent ([5]; during the study period): 54.1%
symptomatic hypoglycemia ([5]; even in patients with a marked improvement in HbA1c levels): not observed

O=C(O)c1cc(O)c2c(c1)C(=O)c1cccc(O)c1C2=O [Rhein, 9,10-dihydro-4,5-dihydroxy-9,10-dioxo-2-anthracenecarboxylic acid]
blood glucose concentration control [6]: control the blood glucose concentration
